# Entries after “also recorded” stand apart in the source; their conditions may differ.
# Columns and labels:
# [1] = tested on: hypothermia induced by apomorphine; assay: Interaction with apomorphine by gastric administration; assay type: in vivo; conditions: Mus musculus, male mice, apomorphine 16 mg/kg s.c., read-out: dose as from which the hypothermia induced by apomorphine is opposed
# Description: Each test product is administered gastrically to male mice, in a volume of 20 ml/kg, 0.50 h before the subcutaneous injection of 16 mg/kg of apomorphine.
# [2] = tested on: mice; assay: Spontaneous motility (actimeter); assay type: in vivo; conditions: i.p.
# In short: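 Male mice (6 per dose, 12 controls) received CRL 41 378 in distilled water i.p. at 20 ml/kg; 0.5 h later they were placed in an actimeter and motility was recorded for 30 minutes.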
# [3] = tested on: mice; assay: Motility reduced by hypoxic aggression (acute hypobaric anoxia); assay type: in vivo; conditions: i.p., hydrochloride
# Description: (§1) In these tests, solutions of the said products in distilled water were administered intraperitoneally in a volume of 20 ml/kg to male mice and in a volume of 5 ml/kg to male rats.
# [4] = tested on: hypothermia, trembling and peripheral cholinergic symptoms induced by oxotremorine; assay: Interaction with oxotremorine; assay type: in vivo; conditions: mice, i.p.
# In short: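 Male mice, groups of 6, given the compound intraperitoneally in distilled water (20 ml/kg) 0.5 h before 0.5 mg/kg oxotremorine i.p. Hypothermia, trembling and peripheral cholinergic symptoms were assessed.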
# [5] = tested on: mice; assay: Traction; assay type: in vivo; conditions: i.p.
# Description: as §1, with “The results of toxicological and neuropsychopharmacological tests which were carried out with the products according to the invention have been summarized below. In” for “In”
# (§2) The test is performed on groups of 10 mice 30 minutes after the administration of CRL 41 378.
# [6] = tested on: anesthetized dogs; assay: Cardiovascular study in anesthetized dogs; assay type: in vivo
# Description: Groups of 2 adult dogs (each weighing 10 to 18 kg), anesthetized with nembutal, receive each test product (i) by intraduodenal administration at successive doses of 0.1 mg/kg, 0.5 mg/kg, 1 mg/kg, 2.5 mg/kg, 5 mg/kb, 10 mg/kg and 20 mg/kg, and then (ii) if appropriate, by intravenous administration at a dose of 10 mg/kg. The effects of 10 μg/kg of isoprenaline and/or 2 μg/kg of norepinephrine after the intraduodenal administration of a cumulative dose of 39.1 mg/kg are also assessed.
# The following are measured: the total arterial blood pressure, the diastolic arterial blood pressure, the heart rate, the blood flows through the femoral and cerebral arteries and saphenous veins, the rectal temperature, the skin temperature and the pressure of the gases (essentially O2) dissolved in the arterial blood.
# [7] = tested on: rats; assay: Overall behavior and reactivities in rats; assay type: in vivo; conditions: i.p.
# In short: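 Male mice (20 ml/kg) and male rats (5 ml/kg) dosed intraperitoneally with compound in distilled water.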
# [8] = tested on: central nervous system (CNS); assay: Neuropsychopharmacological profile (conclusions of the tests); assay type: in vivo, mice and rats; conditions: i.p.
# Description: as §1, with “The results of toxicological and neuropsychopharmacological tests which were carried out with the products according to the invention have been summarized below. In” for “In”
# [9] = tested on: stereotypies induced by apomorphine; assay: Interaction with apomorphine in rats; assay type: in vivo; conditions: i.p., apomorphine 0.5 mg/kg s.c.
# Description: as §1, with “The results of toxicological and neuropsychopharmacological tests which were carried out with the products according to the invention have been summarized below. In” for “In”
# CRL 41 378 is administered to groups of 12 rats 0.5 h before the subcutaneous injection of 0.5 mg/kg of apomorphine.
# [10] = tested on: mice; assay: Asphyxiant anoxia caused by gallamine triiodoethylate; assay type: in vivo; conditions: i.p., gallamine triiodoethylate 32 mg/kg
# Description: as §1, with “The results of toxicological and neuropsychopharmacological tests which were carried out with the products according to the invention have been summarized below. In” for “In”
# Groups of 10 mice receive CRL 41 378 30 minutes before the intraperitoneal administration of 32 mg/kg of gallamine triiodoethylate (reference curarizing agent).
# [11] = tested on: mice; assay: Motility reduced by habituation to the enclosure; assay type: in vivo; conditions: i.p.
# Description: as §1, with “The results of toxicological and neuropsychopharmacological tests which were carried out with the products according to the invention have been summarized below. In” for “In”
# After they have stayed in the actimeters for 18 hours, the mice (6 per dose, 12 control animals) receive CRL 41 378. They are immediately returned to their respective enclosures and, half an hour later, their motility is recorded for 30 minutes.
# [12] = tested on: mice; assay: Intergroup aggressiveness; assay type: in vivo; conditions: mice, i.p.
# In short: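 Male mice housed 3 weeks per group in cage halves split by an opaque partition; groups of 3 given CRL 41 378 i.p. in distilled water.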
# [13] = tested on: depressions and depressive states; assay: Clinical trials in depression and depressive states; assay type: in vivo, human; conditions: daily oral administration to adults
# Description: The clinical trials which have been undertaken have made it possible to determine that the daily dose to be administered orally to adults, in the treatment of depressions and depressive states, is generally between 3 and 120 mg for the products of the formulae Ia and Ib according to the invention.
# [14] = tested on: trembling and head twitches induced by 5-hydroxytryptophan (5-HTP); assay: Interaction with 5-hydroxytryptophan in association with an MAOI (nialamide); assay type: in vivo, male mice
# In short: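 Male mice (groups of 10) got nialamide 20 mg/kg intragastric at T-18 h, test product i.p. in water at T-0.5 h, then (±)-5-HTP 20 mg/kg i.p. at T. Generalized trembling, partial trembling and head twitches scored yes/no over 2 h.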
# [15] = tested on: mice; assay: Four plate test; assay type: in vivo; conditions: i.p.
# Description: as §1, with “The results of toxicological and neuropsychopharmacological tests which were carried out with the products according to the invention have been summarized below. In” for “In”
# as §2
# [16] = tested on: male mice; assay: Acute toxicity, intraperitoneal (LD0, LD30, LD60, LD100); assay type: in vivo; conditions: intraperitoneal
# Description: as §1, with “The results of toxicological and neuropsychopharmacological tests which were carried out with the products according to the invention have been summarized below. In” for “In”
# [17] = i.p., nialamide + (±)-5-HTP, male mice
smiles,measurement,setting,value
"Cl.OC1(c2ccccc2)CN=CNC1 (stereo not shown) [CRL 41 382, 5-hydroxy-5-phenyl-1,4,5,6-tetrahydropyrimidine hydrochloride]",minimal effective dose,[1],≥ 2 mg/kg
same,spontaneous motor activity,[2],does not modify the spontaneous motor activity of mice
same,motor recovery after acute hypobaric hypoxia,[3],"At doses of 16 mg/kg and 64 mg/kg, CRL 41 382 causes an increase in the motor recovery; also recorded: moderate increase in the motor recovery of mice after acute hypobaric hypoxia"
same,minimal effective dose,"[4]; Mus musculus, ip, read-out: dose as from which the hypothermia induced by oxotremorine is antagonized",≥ 1 mg/kg
same,action on signs of peripheral cholinergic stimulation induced by oxotremorine,[4]; oxotremorine 0.5 mg/kg,practically no modification of the trembling or the signs of peripheral cholinergic stimulation due to oxotremorine
same,action on trembling induced by oxotremorine,[4]; oxotremorine 0.5 mg/kg,practically no modification of the trembling
same,action on hypothermia induced by oxotremorine,"[4]; oxotremorine 0.5 mg/kg, hydrochloride","the antagonism is very intense at a dose of 64 mg/kg; also recorded: antagonism of the hypothermia induced by apomorphine, oxotremorine and reserpine in mice"
same,motor incoordination / incapacity,[5],does not cause major motor incapacity
same,rectal temperature,[6],increases the rectal temperature
same,skin temperature,[6],decreases the blood flows through the femoral and vertebral arteries and also the skin temperature
same,α-adrenergic stimulant effect,[6],seems to have an α-adrenergic stimulant effect
same,arterial blood pressure,[6]; intraduodenal,hypertensive
same,heart rate,[6]; intraduodenal,practically no effect on the heart rate
same,arterial blood pressure,[6]; intravenous,hypotensive
same,heart rate,[6]; intravenous,bradycardic
same,effects of isoprenaline,[6]; isoprenaline 10 μg/kg,does not modify the effects of isoprenaline
same,hypertension induced by norepinephrine,[6]; norepinephrine 2 μg/kg,increases the hypertension caused by norepinephrine
same,overall behavior and reactivities,"[7]; 0.5 mg/kg, 2 mg/kg and 8 mg/kg","behavior, reactivities and variations in the pupil diameter and rectal temperature which are analogous to those of the control group"
same,overall behavior and reactivities,[7]; 32 mg/kg,moderate mydriasis for 1 h
same,antidepressant effects,[8],antidepressant effects appearing as from the lowest doses used
same,peripheral anticholinergic activity,[8],absence of peripheral anticholinergic activity
same,sedative effects,[8],sedative effects appearing transiently at the highest doses used (with no detectable decrease in the motor activity)
same,stimulant effects,[8]; hydrochloride,absence of any motor stimulation; also recorded: absence of stimulant effects
same,action on stereotypies induced by apomorphine,[9],practically no modification of the stereotypies induced by apomorphine
same,time taken for convulsions and death / lethal effects of gallamine triiodoethylate,[10],practically no modification of the time taken for convulsions and death to occur
same,resumption in the motor activity of mice accustomed to their enclosure,[11],does not cause a resumption in the motor activity of mice accustomed to their enclosure
same,intergroup aggressiveness (number of fights),[12],practically no modification of the number of fights
same,results in human therapy (depression),[13],excellent results
same,analogy with β-adrenergic stimulants in the 5-HTP procedure,[14]; 5-HTP + MAOI,more closely resembles ritodrine or salbutamol
same,head twitches,[14]; [17],practically no modification of the head twitches
same,partial trembling,[14]; [17],moderate potentiation of the partial trembling
same,number of punished passes,[15],practically no modification of the number of punished passes
same,LD0 (maximum non-lethal dose),[16],greater than 256 mg/kg
same,LD60,[16],~500 mg/kg

# Source: patent publication US4774248A, “Methods of treating depression and depressive states using 5-phenyl-1,4,5,6-tetrahydropyrimidine derivatives” (priority 1985, dated 1988)
